From paper PMC12332266 (Frontiers in Pharmacology, 2025)
“And” between values parts separate entries of the source, which are not always exact repeats. Identical values can stand only once. Like-named read-outs stand apart in the source and are kept apart here.

Key:
[1] = system: hiPSC-CM (iCell Cardiomyocytes^2); test: RTCA CardioECR assessment (impedance and electrophysiology parameters)
Experimental: (§1) Culture media change was performed every 2 days.
After seeding on fibronectin-coated xCELLigence ePlates (Agilent Technologies, Inc. Santa Clara, CA, USA), iCell^2 CM were monitored continuously through impedance electrodes. The following impedance parameters were measured: Cell Index (CI, measure of cell “health” and monolayer integrity), beating rate (BR) and amplitude (CI Amplitude, magnitude of contraction). Electrophysiology-like parameters (Field Potential Duration (FPD), considered as a surrogate for QT in in vivo studies, and Spike Amplitude (SA), depolarization induced by Na^+ channel opening) were measured starting from day 4–6, following the monolayer formation. […] All RTCA CardioECR data were double normalized (DMSO control and the baseline) with no further statistical group comparison for the normalized parameters. The variability of the data within the treatment groups was assessed by standard deviation.

[2] = system: hiPSC-CM (iCell Cardiomyocytes^2); test: Intracellular miRNA expression by RT-qPCR in hiPSC-CM pellets after 72-hour treatment; conditions: for fold induction at 0.1 µM / fold induction at 0.3 µM / fold induction at 1 µM / fold induction at 3 µM / fold induction at 0.01 µM / fold induction at 0.03 µM: Homo sapiens
Experimental: as §1
Total RNA was extracted from hiPSC-CM using the miRNeasy 96 Kit (Qiagen, Hilden, Germany) following the manufacturer’s recommendations. After the extraction, RNA purity was assessed by NanoDrop™ 8000 Spectrophotometer (Thermo Fisher Scientific Inc.). 5–10 ng/μL of RNA per sample were reverse transcribed and pre-amplified by using the TaqMan™ Advanced miRNA cDNA Synthesis Kit (Thermo Fisher Scientific Inc.). The synthesized cDNA was used for RT-qPCR with selected TaqMan™ assays (Thermo Fischer Scientific Inc.). RT-qPCR was carried out following the Applied Biosciences TaqMan miRNA expression assay protocol on a ViiA7 instrument (Thermo Fisher Scientific, Inc.). […] Therefore, to maximize the number of drugs and concentrations, explored in the same study, we pooled the triplicates for intracellular profiling of miRNAs. Therefore, no statistical analysis was performed on the data of miRNA profiling in the pellets of hiPSC-CM.
Following RTCA CardioECR assessment, hiPSC-CM cell pellets were collected, and total RNA was extracted and purified to investigate miRNAs upregulation by RT-qPCR. […] For the initial assessment of intracellular miRNAs in 12 different treatments, encompassing various drug classes, we used a panel of 17 miRNAs, which we selected from the publicly available data focusing mainly on in vitro models and structural cardiotoxicants (Supplementary Table S2).

[3] = 72 h, read-out: hsa-miR-7-5p fold change
[4] = 72 h, read-out: hsa-miR-29a-5p fold change
[5] = 72 h, read-out: hsa-miR-126-3p fold change
[6] = 72 h, read-out: hsa-miR-133b fold change
[7] = 72 h, read-out: hsa-miR-146b-5p fold change
[8] = 72 h, read-out: hsa-miR-182-5p fold change
[9] = 72 h, read-out: hsa-miR-185-3p fold change
[10] = 72 h, read-out: hsa-miR-187-3p fold change
[11] = 72 h, read-out: hsa-miR-208b-3p fold change
[12] = 72 h, read-out: hsa-miR-365a-5p fold change
[13] = hiPSC-CM, 72-hour treatment, lowest concentration causing at least 20% change from baseline
[14] = 72 h, read-out: hsa-miR-96-5p fold change
[15] = 72 h, read-out: hsa-miR-[…] change

## O=C1c2c(O)ccc(O)c2C(=O)c2c(NCCNCCO)ccc(NCCNCCO)c21 [Mitoxantrone]
[1]; hiPSC-CM, change ≥20%, Table 2
  RTCA, MEC (CI): 0.1 µM (CI, BR)
[1]; human, 72 h
  Beating Rate MEC: 0.1 µM
  Beating rate (BR) MEC: 0.1 µM
  Contractility Amplitude MEC: 0.1 µM
  Field Potential Duration MEC: 0.1 µM
  RTCA, MEC (BR): 0.1 µM (CI, BR)
  Spike Amplitude (SA) MEC: 0.1 µM
[2]
  miRNAs hiPSC-CM pellet, MEC overall: 0.1 µM
  miRNAs upregulated at the MEC overall (hiPSC-CM pellet): miR-96 -5p, miR-146b-5p, miR-182-5p, miR-187-3p, miR-365a-5p

## CC(=O)O[C@H]1C(=O)[C@@]2(C)[C@H]([C@H](OC(=O)c3ccccc3)[C@]3(O)C[C@H](OC(=O)[C@H](O)[C@@H](NC(=O)c4ccccc4)c4ccccc4)C(C)=C1C3(C)C)[C@]1(OC(C)=O)CO[C@@H]1C[C@@H]2O [Paclitaxel]
[1]; hiPSC-CM, change ≥20%, Table 2
  RTCA, MEC (CI): 0.3 µM
[1]; human, 72 h
  Beating Rate MEC: 3 µM
  Beating rate (BR) MEC: 3 µM
  Contractility Amplitude MEC: 0.3 µM
  Field Potential Duration MEC: 3 µM
  RTCA, MEC (BR): 3 µM
  Spike Amplitude (SA) MEC: 3 µM
[2]
  miRNAs hiPSC-CM pellet, MEC overall: 0.3 µM
  miRNAs upregulated at the MEC overall (hiPSC-CM pellet): miR-96-5p, miR-133b

## COc1nc(N)nc2c1ncn2[C@@H]1O[C@H](COP(=O)(N[C@@H](C)C(=O)OCC(C)(C)C)Oc2cccc3ccccc23)[C@@H](O)[C@@]1(C)O (stereo partly drawn) [BMS-986094]
[1]; human, 72 h
  Beating Rate MEC: 0.048 µM
  RTCA, MEC (BR): 0.048 µM
  Spike Amplitude (SA) MEC: 0.16 µM
[2]
  intracellular miRNA upregulation in hiPSC-CM, in words: lowest upregulation of miRNAs was detected at the highest concentration tested
  miRNAs hiPSC-CM pellet, MEC overall: 0.1 µM
  miRNAs upregulated at the MEC overall (hiPSC-CM pellet): miR-29a-5p, miR-365a-5p
[2]; [3]
  fold induction at 0.1 µM: 1.7
  fold induction at 0.3 µM: 1
  fold induction at 1 µM: 1.3
  fold induction at 3 µM: 1.3
[2]; [4]
  fold induction at 0.1 µM: 6.3
  fold induction at 0.3 µM: 1
  fold induction at 1 µM: 1.2
  fold induction at 3 µM: 0.5
[2]; [5]
  fold induction at 0.1 µM: 0.3
  fold induction at 0.3 µM: 2.9
  fold induction at 1 µM: 2.8
  fold induction at 3 µM: 5.2
[2]; [6]
  fold induction at 0.1 µM: 1.3
  fold induction at 0.3 µM: 3.3
  fold induction at 1 µM: 2
  fold induction at 3 µM: 1.3
[2]; [7]
  fold induction at 0.1 µM: 1.8
  fold induction at 0.3 µM: 4.2
  fold induction at 1 µM: 11.3
  fold induction at 3 µM: 1.4
[2]; [8]
  fold induction at 0.1 µM: 1
  fold induction at 0.3 µM: 8.8
  fold induction at 1 µM: 7.1
  fold induction at 3 µM: 5.5
[2]; [9]
  fold induction at 0.3 µM: 0.5
  fold induction at 1 µM: 3.3
  fold induction at 3 µM: 8.2
[2]; [10]
  fold induction at 0.1 µM: 0.5
  fold induction at 0.3 µM: 2.7
  fold induction at 1 µM: 8.8
[2]; [11]
  fold induction at 0.1 µM: 1.7
  fold induction at 0.3 µM: 1.3
  fold induction at 1 µM: 1.1
  fold induction at 3 µM: 1
[2]; [12]
  fold induction at 0.1 µM: 2.2
  fold induction at 0.3 µM: 0.7
  fold induction at 1 µM: 1.3
  fold induction at 3 µM: 0.7

## CCN[C@@H](C)Cc1cccc(C(F)(F)F)c1 [Dexfenfluramine]
[1]; hiPSC-CM, 72-hour treatment, at least 40% change
  Spike Amplitude (SA) MEC: 0.01 µM
[1]; [13]
  Beating rate (BR) MEC: ND (ND – not detected, magnitude of change was lower than 20%)
  Cell index (CI) MEC: ND (ND – not detected, magnitude of change was lower than 20%)
[1]; hiPSC-CM, change ≥20%, Table 2
  RTCA, MEC (BR): ND (ND – not detected, magnitude of change was lower than 20% for CI/BR)
  RTCA, MEC (CI): ND (ND – not detected, magnitude of change was lower than 20% for CI/BR)
[2]; [3]
  fold induction at 0.01 µM: 0.8
  fold induction at 0.03 µM: 0.8
  fold induction at 0.1 µM: 0.7
  fold induction at 0.3 µM: 1
[2]; [4]
  fold induction at 0.01 µM: 1.8
  fold induction at 0.03 µM: 0.8
  fold induction at 0.3 µM: 0.7
[2]; [14]
  fold induction at 0.01 µM: 1.8
  fold induction at 0.03 µM: 0.8
  fold induction at 0.3 µM: 0.7
[2]; [5]
  fold induction at 0.01 µM: 1.3
  fold induction at 0.03 µM: 2.3
  fold induction at 0.1 µM: 0.6
  fold induction at 0.3 µM: 0.5
[2]; [6]
  fold induction at 0.01 µM: 4
  fold induction at 0.03 µM: 0.7
  fold induction at 0.1 µM: 0.5
  fold induction at 0.3 µM: 0.1
[2]; [7]
  fold induction at 0.01 µM: 0.5
  fold induction at 0.03 µM: 0.7
  fold induction at 0.1 µM: 0.4
  fold induction at 0.3 µM: 0.7
[2]; [8]
  fold induction at 0.01 µM: 0.01
  fold induction at 0.03 µM: 0.004
  fold induction at 0.1 µM: 0.003
  fold induction at 0.3 µM: 0.01
[2]; [9]
  fold induction at 0.01 µM: 2.1
  fold induction at 0.03 µM: 1.2
  fold induction at 0.1 µM: 1
  fold induction at 0.3 µM: 0.7
[2]; [10]
  fold induction at 0.01 µM: 0.6
  fold induction at 0.03 µM: 0.7
  fold induction at 0.1 µM: 0.7
  fold induction at 0.3 µM: 0.6
[2]; [11]
  fold induction at 0.01 µM: 1.1
  fold induction at 0.03 µM: 1
  fold induction at 0.1 µM: 0.8
  fold induction at 0.3 µM: 0.9
[2]; [12]
  fold induction at 0.03 µM: 2.6
  fold induction at 0.3 µM: 8.9
[2]; [15]
  fold induction at 0.01 µM: 1.2
  fold induction at 0.03 µM: 0.9
  fold induction at 0.1 µM: 0.8
  fold induction at 0.3 µM: 0.8
[2]; fold change ≥2, 72 h
  miRNAs upregulated at the MEC overall (hiPSC-CM pellet): miR-133b, miR-185-3p
[2]; lowest concentration tested which produced miRNA upregulation (fold change ≥2), 72 h
  miRNAs hiPSC-CM pellet, MEC overall: 0.01 µM

## Cc1ccc(NC(=O)c2ccc(CN3CCN(C)CC3)cc2)cc1Nc1nccc(-c2cccnc2)n1 [Imatinib]
[1]; human, 72 h
  Spike Amplitude (SA) MEC: 0.3 µM
[2]
  miRNAs hiPSC-CM pellet, MEC overall: 0.3 µM

## Endothelin-1
[1]; hiPSC-CM, 72-hour treatment
  Contractility Amplitude magnitude of effect at MEC: -20%
  Field Potential Duration magnitude of effect at MEC: +20%
  Spike Amplitude (SA) magnitude of effect at MEC: -52%
[2]
  hsa-miR-133b fold change: 2.7 and 3.5 and 3.1
  hsa-miR-208b-3p fold change: 1.6 and 1.5 and 1.1 and 1.0
